Earlier results on 1 molecule are cited in article PMC10664590 (Chemical Science, 2023).

Turning to `O=c1ccc2ccc(O)cc2o1` [7-hydroxy-cumarine], the long-wavelength absorption maximum entry is reported as “around 330 nm”. Also, the fluorescence maximum result (in ethanol) was “around 380 nm”.
